# From patent EP3355943B1, “METHODS AND SYSTEMS FOR TREATING MEDICAL DEVICES AND FLUIDS” (Ethicon, Inc., priority 2015, dated 2017)
# “And” between values parts separate entries of the source, which are not always exact repeats. Identical values can stand only once.
# Legend:
# Type in all cases: biochemical
# [1] = Endotoxin removal by sonicated CaSt suspension stored 1 month; details: listed as CaSt suspension; for Percent Endotoxin Removal(15 min/30 min): sonicated suspension stored 1 month
# Method: 10 ml of LRW water (LAL reagent water, contains no endotoxin) containing 0.04 g of CaSt suspension was sonicated using Misonix Probe Sonicator, Model: S-4000, Amplitude: 30, Time: 30 seconds and then the suspension was stored for 1 month at ambient temperature. Then 1 ml of the above suspension was added to 10 ml endotoxin containing water SRW and the resulting endotoxin concentrations in the combined solution measured after 15 min and 30 min, with the results presented in Table 14.
# [2] = Testing of various sources of LPS: detection of LPS after adding CaSt to spiked water
# Method: Therefore, for the methods described above, the activity of endotoxin was tested with various sources of endotoxin. Laboratory grown endotoxin is purified while natural endotoxin will be present with other substances such as proteins and phospholipids.
# The laboratory grown endotoxin used in this experiment was supplied by Charles River Laboratories.
# Natural airborne endotoxin was captured using an electret filter. Electret filters are produced from dielectric polymer fibers that develop an electrical charge when air flows past them, capturing the endotoxin along with other particles. The endotoxin was extracted from the filter by placing the filter in endotoxin free water for an extended period of time.
# Two other natural sources of endotoxin were obtained from water samples in the surrounding environment. One source was a pool of sitting rain water and other being a small puddle on the side of the Raritan River. The sitting rain water (SRW) was purified via chlorination and 0.2 µm filter. The Raritan River Water (RRW) was not altered in anyway. The same testing procedure was conducted for all sources of endotoxin.
# Table 11. Detection of LPS after adding CaSt to test tubes containing water spiked with LPS
# [3] = Kinetics of removal of LPS with different agitation techniques in presence of stearate salts; details: for Endotoxin Detected (EU): 5mL SRW, baseline 1,502; for Percent (%) Removed: vs SRW Baseline
# Method: 5mL of SRW was added to each of the tubes. Each solution was tested for endotoxin removal after agitation based on with sonication, vortexing, or test tube rolling. Sonication samples were sonicated at each indicated time interval for 30 seconds at a magnitude of 30. Vortex samples were vortexed at each indicated time interval for 30 seconds at 2500 RPM. Rolling samples were constantly rolling at 10 rpm. The samples were tested on the MCS for endotoxin at 1 minute, 20 minutes, 40 minutes, 60 minutes, and 80 minutes.
# [4] = Suture testing in ethyl acetate containing CaSt: detection of LPS on suture; details: LPS-contaminated suture submerged in Ethyl Acetate w/ 5% Calcium Stearate, vortexed 10 seconds
# Method: An absorbable VICRYL® (Polyglactin 910) suture (Size 1, Length: 27in) made of a copolymer made from 90% glycolide and 10% L-lactide was exposed to a solution containing LPS (endotoxin) (9 Strands of Vicryl suture were immersed in tubing with endotoxin solution (SRW, Concentration: 3980 EU/mL) for 10 minutes at a time at ambient temperature. The sutures were air dried for 20 minutes in a vented chemical hood and then placed in round bottom and dried The suture was then immersed into Ethyl Acetate (EtAc) containing CaSt, vortexed briefly for 10 seconds, dried for 20 minutes in a vented chemical hood, and extracted in endotoxin free water at ambient temperature. The suture extracted in endotoxin free water (LRW) was then tested for LPS using the Kinetic Chromogenic Method for Endotoxin Quantitation, Charles River Laboratories, Charleston S.C.
# [5] = Detection of LPS in water in presence of CaSt and EDTA and Tween 20; details: 5mL, 8330 EU spiked; for Percent detected Endotoxin: 60 min
# Method: Further testing was performed with addition of EDTA and Polysorbate 20 reagents to verify permanent removal of LPS/endotoxin activity, by adding EDTA and Polysorbate 20 to the extraction solutions to test for potential recovery of endotoxin activity when introduced to these two substances.
# The testing was performed in aqueous solutions with added EDTA and Polysorbate 20, with suspended CaSt present in some solutions in varying quantities. […] The tubes were vortexed for 1 minute and placed in a 37C bath for 1 hour. The tubes were removed from the bath and again vortexed for 1 minute. The solutions were diluted and tested for endotoxin using the Kinetic Chromogenic Method for Endotoxin Quantitation, Charles River Laboratories, Charleston S.C. […] These samples were rigorously vortexed and tested using the Kinetic Chromogenic Method for Endotoxin Quantitation, Charles River Laboratories, Charleston S.C. […]
# [6] = Charles River Standard, 0.018 g Calcium Stearate, 8330 EU spiked
# [7] = Charles River Standard, 0.05 g Calcium Stearate, 8330 EU spiked
# [8] = Charles River Standard, 0.15 g Calcium Stearate, 8330 EU spiked
# [9] = Charles River Standard, 0.25 g Calcium Stearate, 8330 EU spiked
# [10] = Dust Filter Extraction Water, 0.01 g Calcium Stearate, 9280 EU spiked
# [11] = Dust Filter Extraction Water, 0.25 g Calcium Stearate, 9280 EU spiked
# [12] = RRW, 0.01 g Calcium Stearate, 4340 EU spiked
# [13] = RRW, 0.1 g Calcium Stearate, 4340 EU spiked
# [14] = RRW, 0.25 g Calcium Stearate, 4340 EU spiked
# [15] = SRW, 0.01 g Calcium Stearate, 11100 EU spiked
# [16] = Weight of Calcium Stearate 0.007 g
# [17] = Weight of Calcium Stearate 0.018 g
# [18] = Weight of Calcium Stearate 0.028 g
compound,measurement,setting,value
CCCCCCCCCCCCCCCCCC(=O)O [Calcium Stearate],Endotoxin EU/mL (15 min after addition of CaSt suspension),"[1]; 0.04 g CaSt in 10 ml LRW sonicated, stored 1 month, added to SRW, initial 732.5 EU/mL, 15 min",372 EU/mL and 362 EU/mL
same,Endotoxin EU/mL (30 min after addition of CaSt suspension),"[1]; 0.04 g CaSt in 10 ml LRW sonicated, stored 1 month, added to SRW, initial 732.5 EU/mL, 30 min",384 EU/mL and 278 EU/mL
same,Percent Endotoxin Removal(15 min/30 min),[1]; 15 min,49.2% and 50.6%
same,Percent Endotoxin Removal(15 min/30 min),[1]; 30 min,47.6% and 62.0%
same,percent of endotoxin recovered,"[2]; 0.1 grams of calcium stearate and higher, all sources of endotoxin",under 5%
same,Endotoxin Detected (EU),"[2]; Charles River Standard, 0.007 g Calcium Stearate, 8330 EU spiked",3995 EU
same,Endotoxin Detected (EU),[2]; [6],1487.5 EU
same,Percent of Endotoxin Detected,[2]; [6],17.9%
same,Endotoxin Detected (EU),"[2]; Charles River Standard, 0.028 g Calcium Stearate, 8330 EU spiked",235 EU
same,Endotoxin Detected (EU),[2]; [7],190.5 EU
same,Percent of Endotoxin Detected,[2]; [7],2.3%
same,Endotoxin Detected (EU),[2]; [8],86.5 EU
same,Percent of Endotoxin Detected,[2]; [8],1.0%
same,Endotoxin Detected (EU),[2]; [9],38.5 EU
same,Percent of Endotoxin Detected,[2]; [9],0.5%
same,Endotoxin Detected (EU),[2]; [10],3440 EU
same,Percent of Endotoxin Detected,[2]; [10],37.1%
same,Endotoxin Detected (EU),[2]; [11],28.5 EU
same,Percent of Endotoxin Detected,[2]; [11],0.3%
same,Endotoxin Detected (EU),[2]; [12],960 EU
same,Percent of Endotoxin Detected,[2]; [12],22.1%
same,Endotoxin Detected (EU),[2]; [13],165 EU
same,Percent of Endotoxin Detected,[2]; [13],3.8%
same,Endotoxin Detected (EU),[2]; [14],70 EU
same,Percent of Endotoxin Detected,[2]; [14],1.6%
same,Percent of Endotoxin Detected,"[2]; RRW, 0.35 g Calcium Stearate, 4340 EU spiked",2.6%
same,Endotoxin Detected (EU),[2]; [15],2780 EU
same,Percent of Endotoxin Detected,[2]; [15],25.0%
same,Percent of Endotoxin Detected,"[2]; SRW, 0.25 g Calcium Stearate, 11100 EU spiked",1.0%
same,"removal of LPS (in words), comparison of salts of stearic acid",[3]; CaSt vs. other salt forms,more efficacious in removal of LPS
same,Endotoxin Detected (EU),"[3]; Rolling, 1 minute","1,230 EU"
same,Percent (%) Removed,"[3]; Rolling, 1 minute",18.1%
same,Endotoxin Detected (EU),"[3]; Rolling, 20 minutes","1,050 EU"
same,Percent (%) Removed,"[3]; Rolling, 20 minutes",30.1%
same,Endotoxin Detected (EU),"[3]; Rolling, 40 minutes",630 EU
same,Percent (%) Removed,"[3]; Rolling, 40 minutes",58.1%
same,Endotoxin Detected (EU),"[3]; Rolling, 60 minutes",637 EU
same,Percent (%) Removed,"[3]; Rolling, 60 minutes",57.6%
same,Endotoxin Detected (EU),"[3]; Rolling, 80 minutes",451 EU
same,Percent (%) Removed,"[3]; Rolling, 80 minutes",70%
same,Endotoxin Detected (EU),"[3]; Sonication, 1 minute",270 EU
same,Percent (%) Removed,"[3]; Sonication, 1 minute",82%
same,Endotoxin Detected (EU),"[3]; Sonication, 20 minutes",130 EU
same,Percent (%) Removed,"[3]; Sonication, 20 minutes",91.3%
same,Endotoxin Detected (EU),"[3]; Sonication, 40 minutes",87.5 EU
same,Percent (%) Removed,"[3]; Sonication, 40 minutes",94.2%
same,Endotoxin Detected (EU),"[3]; Sonication, 60 minutes",56.9 EU
same,Percent (%) Removed,"[3]; Sonication, 60 minutes",96.2%
same,Endotoxin Detected (EU),"[3]; Sonication, 80 minutes",16.4 EU
same,Percent (%) Removed,"[3]; Sonication, 80 minutes",98.9%
same,Endotoxin Detected (EU),"[3]; Vortexing, 1 minute",451 EU
same,Percent (%) Removed,"[3]; Vortexing, 1 minute",70%
same,Endotoxin Detected (EU),"[3]; Vortexing, 20 minutes",301 EU
same,Percent (%) Removed,"[3]; Vortexing, 20 minutes",80%
same,Endotoxin Detected (EU),"[3]; Vortexing, 40 minutes",139 EU
same,Percent (%) Removed,"[3]; Vortexing, 40 minutes",90.7%
same,Endotoxin Detected (EU),"[3]; Vortexing, 60 minutes",173 EU
same,Percent (%) Removed,"[3]; Vortexing, 60 minutes",88.5%
same,Percent (%) Removed,"[3]; Vortexing, 80 minutes",93.1%
same,Endotoxin Detected (EU),[4],23.4 EU and 21.78 EU and 25.62 EU
same,Endotoxin Detected (EU),[5]; [16],3995 EU
same,Percent detected Endotoxin,[5]; [16],48.0%
same,Endotoxin Detected (EU),[5]; [17],1487.5 EU
same,Percent detected Endotoxin,[5]; [17],17.9%
same,Endotoxin Detected (EU),[5]; [18],235 EU
same,Percent detected Endotoxin,[5]; [18],2.8%
